Experimental data as given in ChEMBL document CHEMBL4651402, “Screening of ~5500 FDA-approved drugs and clinical candidates for anti-SARS-CoV-2 activity” (2021).

System: SARS-CoV-2
Assay: microbe, parasite or virus in culture
Conditions: Severe acute respiratory syndrome coronavirus 2, Vero C1008, 48 h

Row | SMILES | IC50 [µM] | IC50 (read-out: pIC50 (converted)) [µM]
1 | CCCCN(CCCC)CCCOc1c(C)cc(C(=O)c2cc(=O)c3ccccc3o2)cc1C [BUCROMARONE] | > 20 | > 20
2 | CC(=O)O[C@@]12CO[C@@H]1C[C@H](O)[C@@]1(C)C(=O)[C@H](O)C3=C(C)[C@@H](OC(=O)[C@H](O)[C@@H](NC(=O)OC(C)(C)C)c4ccccc4)C[C@](O)([C@@H](OC(=O)c4ccccc4)[C@H]21)C3(C)C | > 20 | > 20
3 | Clc1ccc(C(c2ccccc2Cl)C(Cl)Cl)cc1 (centres undefined) [MITOTANE] | > 20 | > 20
4 | CN(Cc1cc(Br)cc(Br)c1N)C1CCCCC1 [BROMHEXINE] | > 20 | > 20
5 | Cc1ncc([N+](=O)[O-])n1CCO [METRONIDAZOLE] | > 20 | > 20
6 | O=C(O)/C=C/c1ccc(Cn2ccnc2)cc1 [OZAGREL] | > 20 | > 20
7 | CC12C=CC(=O)C=C1CCC1C3CC4Cc5ccccc5CC4(C(=O)CO)C3(C)CC(O)C12F (centres undefined) | > 20 | > 20
8 | Cc1cccc(C)c1NC(=O)c1cc(S(N)(=O)=O)c(Cl)cc1O [XIPAMIDE] | > 20 | > 20
9 | CCCc1nc(C)c2c(=O)nc(-c3cc(S(=O)(=O)N4CCN(CC)CC4)ccc3OCC)[nH]n12 | > 20 | > 20
10 | O=C(O)Cc1cn(-c2ccccc2)nc1-c1ccc(Cl)cc1 [LONAZOLAC] | > 20 | > 20
11 | C[C@H]1C(O)O[C@@H]2O[C@@]3(C)CC[C@H]4[C@H](C)CCC1[C@@]24OO3 (some centres undefined) | > 20 | > 20
12 | CC12CCC3C4CCC(O)CC4=CCC3C1CCC2O (centres undefined) | > 20 | > 20
13 | Nc1ccn([C@H]2CC[C@@H](CO)O2)c(=O)n1 [ZALCITABINE] | > 20 | > 20
14 | CC(C)(Oc1ccc(Cl)cc1)C(=O)O [CLOFIBRIC ACID] | > 20 | > 20
15 | CCCCNc1cc(C(=O)O)cc(S(N)(=O)=O)c1Oc1ccccc1 [BUMETANIDE] | > 20 | > 20
16 | CCCN1CCC(c2cccc(S(C)(=O)=O)c2)CC1 [PRIDOPIDINE] | > 20 | > 20
17 | CC(=O)C[C@@H](c1ccccc1)c1c(O)c2ccccc2oc1=O | > 20 | > 20
18 | CN(C)CC(CN1c2ccccc2Sc2ccccc21)N(C)C (centres undefined) [AMINOPROMAZINE] | > 20 | > 20
19 | CC(C(=O)O)c1ccc2c(c1)Cc1cccnc1O2 (centres undefined) [PRANOPROFEN] | > 20 | > 20

Row | SMILES | IC50 [µM] | IC50 (read-out: pIC50 (converted)) [µM]
20 | CC(C)(C(=O)NCC(F)(F)C(F)(F)F)C(=O)N[C@@H]1C(=O)Nc2ccccc2-c2ccccc21 [RG-4733] | > 20 | > 20
21 | C[C@@H](Oc1cc(-c2cnn(C3CCNCC3)c2)cnc1N)c1c(Cl)ccc(F)c1Cl [CRIZOTINIB] | > 20 | > 20
22 | CCCCC(=O)O[C@]1(C(=O)CO)C(C)CC2C3CCC4=CC(=O)C=CC4(C)[C@@]3(F)C(O)CC21C (some centres undefined) | > 20 | > 20
23 | CC[C@@H](C(N)=O)N1CCCC1=O | > 20 | > 20
24 | OCCN1CCCCC1C(c1ccccc1)c1ccccc1 (centres undefined) [DIFEMETOREX] | > 20 | > 20
25 | O=C1CCC(c2ccccc2)(C2CCN(Cc3ccccc3)CC2)C(=O)N1 (centres undefined) [BENZETIMIDE] | > 20 | > 20
26 | Cc1ccc(C(=O)Nc2ccc(Oc3cc4cnn(C)c4cc3-c3cn[nH]c3)c(F)c2)c(=O)n1-c1ccc(F)cc1 [MERESTINIB] | > 20 | > 20
27 | CC(=O)Nc1cccc(O)c1 [METACETAMOL] | > 20 | > 20
28 | CCCc1c(OCCCCCOc2cc3c(cc2C(C)=O)CCC(C(=O)O)O3)ccc(C(C)=O)c1O (centres undefined) [ABLUKAST] | > 20 | > 20
29 | C=CCN1CCC[C@H]1CNC(=O)c1cc(CCCF)cc(OC)c1OC [FALLYPRIDE] | > 20 | > 20
30 | CC(C)CCCC(C)C1CCC2C3C(=O)C=C4CC(O)CCC4(C)C3CCC12C (centres undefined) | > 20 | > 20
31 | COc1ccc2c(c1)CC[C@@H](CN(C)CC(=O)O)[C@H]2c1ccccc1 | > 20 | > 20
32 | COc1ccc2c(c1)c(CC(=O)NC(CO)C(=O)O)c(C)n2C(=O)c1ccc(Cl)cc1 (centres undefined) | > 20 | > 20
33 | CC(=O)N1CCN(c2ccc(OC[C@@H]3CO[C@](Cn4ccnc4)(c4ccc(Cl)cc4Cl)O3)cc2)CC1 | > 20 | > 20
34 | C=C1C(=O)[C@]23[C@H](O)[C@H]1CC[C@H]2[C@@]12CO[C@]3(O)[C@@H](O)[C@@H]1C(C)(C)CC[C@@H]2O [ORIDONIN] | > 20 | > 20
35 | CC1CCN(CCCC(=O)c2ccc(F)cc2)CC1 [MELPERONE] | > 20 | > 20
36 | CC(C)CCCC(C)C1CCC2C3C=CC4=CC(=O)CCC4(C)C3CCC12C (centres undefined) | > 20 | > 20
37 | CC12CCC(=O)C=C1CCC1C3CC[C@](C)(O)C3(C)CC(O)[C@@]12F (some centres undefined) | > 20 | > 20
